Laboratory results from patent publication US20220380310A1, “P2X7R ANTAGONISTS” (priority 2019, published 2022).
Structures can show the parent of a compound that is named as a salt.

Key:
Type in all cases: cell-based
[1] = target: T1, Human P2X1 receptor (P2X1R) (Homo sapiens, UniProt P51575); assay: Receptor-mediated calcium entrance assay (Calcium Assay), P2X1R transfected HEK-293 cells; settings: ATP 20 μM stimulus; for remaining activity at 5 µM: HEK293, compound at 5 μM, read-out: Percentage of activity remains in the presence of the compound at 5 μM, P2X1R (Calcium Assay)
T1 construct: expressed in transfected cells; host or cells: HEK-293
T1 sequence (P51575 1-399): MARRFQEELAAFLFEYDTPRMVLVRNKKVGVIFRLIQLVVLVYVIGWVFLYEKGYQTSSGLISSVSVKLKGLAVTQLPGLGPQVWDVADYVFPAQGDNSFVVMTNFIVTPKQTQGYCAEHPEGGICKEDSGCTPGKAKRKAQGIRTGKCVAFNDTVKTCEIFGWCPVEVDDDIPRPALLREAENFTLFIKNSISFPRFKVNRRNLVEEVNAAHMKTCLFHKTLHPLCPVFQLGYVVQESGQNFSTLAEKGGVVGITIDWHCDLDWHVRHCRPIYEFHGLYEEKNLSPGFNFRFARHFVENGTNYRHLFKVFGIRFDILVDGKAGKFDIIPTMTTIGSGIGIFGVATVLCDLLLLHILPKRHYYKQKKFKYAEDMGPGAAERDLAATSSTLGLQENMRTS
Text: (§1) Human P2X1 receptor (P2X1R) is a member of P2X family. […] Thus, the calcium assay was used. In the calcium assay, P2X receptor activation leads to opening of ion channels, which increases intracellular calcium concentration. The increased intracellular calcium concentration can be detected by a calcium indicator dye such as Fluo-4 or Fluo-8. Molecular Probes™ Fluo-4, AM (Cat. No. F14201 from Fisher Scientific) was used in the assay. The procedures were similar as described in the Yo-Pro-1 assay until day 4. The construct of P2X1R for transient transfection to HEK-293 cells was the courtesy from Dr. Richard J. Evans laboratory (J. Biol. Chem. 279:9043-9055). After transfection and expression, on day 4 cells were washed twice by Ca-HBSS (The composition (in mM) was NaCl 135, HEPES 10, D-glucose 10, KCl 5.4, CaCl2 2, and MgCl2 1, pH to 7.4 by NaOH) and incubated in dye loading solution (The solution contained 2.5 μM Fluo-4, 1 mM probenecid, and 1× PowerLoad (Cat. No. P10020 from Fisher Scientific) in Ca-HBSS) for 70 minutes at 37° C. Then the extracellular loading dye was washed away and cells were incubated at Ca-HBSS containing 1 mM probenecid for 30 minutes. Before the final steps, probenecid was washed away with Ca-HBSS. The assay was performed by adding 25 μl of Ca-HBSS followed by 25 μl of various test compounds. At this point, the base level of fluorescence was obtained through the microplate reading—the base microplate reading for this assay. At the end, the stimulus (ATP at 20 μM was the final concentration for P2X1R) was added to activate the P2X1R. Activation of P2X1R opened the channel to allow influx of calcium, which was represented by fluorescence increases that were measured by the microplate device with excitation at 475 nm and emission wavelength in the range of 500-550 nm. The data were analyzed the same way as described before: The result of each well was first normalized by its corresponding base microplate reading. Then, the negative control signal was subtracted from. In the negative control, the test compound and the stimulus were replaced by Ca-HBSS. […] An average of six highest values of the plate (AVG) were considered as 100% and the value of each well was divided by AVG and presented as the relative values in percentages.

[2] = target: T2, P2X2R (Homo sapiens, UniProt Q9UBL9); assay: Receptor-mediated calcium entrance assay (Calcium Assay), P2X2R; settings: for remaining activity at 5 µM: compound at 5 μM, read-out: Percentage of activity remains in the presence of the compound at 5 μM, P2X2R (Calcium Assay)
T2 construct: expressed in transfected cells; host or cells: HEK-293
T2 sequence (Q9UBL9 1-471): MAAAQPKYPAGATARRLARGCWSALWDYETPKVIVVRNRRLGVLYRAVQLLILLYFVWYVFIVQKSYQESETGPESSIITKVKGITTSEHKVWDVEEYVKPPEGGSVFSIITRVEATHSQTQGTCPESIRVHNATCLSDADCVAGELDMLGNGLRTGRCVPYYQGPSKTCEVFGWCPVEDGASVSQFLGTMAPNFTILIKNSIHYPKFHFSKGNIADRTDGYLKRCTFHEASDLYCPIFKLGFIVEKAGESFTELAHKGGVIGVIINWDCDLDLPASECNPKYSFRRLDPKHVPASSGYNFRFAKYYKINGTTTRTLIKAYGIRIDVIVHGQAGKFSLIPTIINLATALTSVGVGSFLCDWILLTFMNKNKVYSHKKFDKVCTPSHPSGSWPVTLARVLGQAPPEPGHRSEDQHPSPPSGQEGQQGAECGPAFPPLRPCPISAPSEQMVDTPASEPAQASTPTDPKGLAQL

[3] = target: T3, Human P2X4 receptor (P2X4R) (Homo sapiens, UniProt Q99571); assay: Receptor-mediated calcium entrance assay (Calcium Assay), P2X4R transfected HEK-293 cells; settings: HEK293, compound at 5 μM, 1 mM ATP stimulus, read-out: Percentage of activity remains in the presence of the compound at 5 μM, P2X4R (Calcium Assay)
T3 construct: expressed in transfected cells; host or cells: HEK-293
T3 sequence (Q99571 1-388): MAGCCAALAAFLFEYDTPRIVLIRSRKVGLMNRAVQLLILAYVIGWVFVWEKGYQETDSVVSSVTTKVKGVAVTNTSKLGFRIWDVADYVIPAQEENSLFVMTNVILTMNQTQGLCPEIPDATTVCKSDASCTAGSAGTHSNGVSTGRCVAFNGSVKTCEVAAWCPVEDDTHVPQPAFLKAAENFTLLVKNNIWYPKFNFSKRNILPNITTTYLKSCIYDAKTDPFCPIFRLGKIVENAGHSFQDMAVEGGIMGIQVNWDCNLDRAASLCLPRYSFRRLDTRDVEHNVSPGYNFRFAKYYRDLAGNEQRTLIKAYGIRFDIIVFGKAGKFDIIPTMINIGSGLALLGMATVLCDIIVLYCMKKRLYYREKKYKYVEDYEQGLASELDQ
Text: as §1
Human P2X4 receptor (P2X4R) construct (J. Biol. Chem. 290, 7930-7942) was transiently transfected to HEK-293 cells and the calcium assay was performed as described above. When 1 mM ATP was used as stimulus, an increased receptor mediated activity leading to intracellular calcium elevation can be seen in less than 10 minutes.

Structure (SMILES) | Percentage of activity remains in the presence of the compound at 5 μM, P2X1R (Calcium Assay) [1] [%] | Percentage of activity remains in the presence of the compound at 5 μM, P2X2R (Calcium Assay) [2] [%] | remaining activity at 5 µM [1] [%] | remaining activity at 5 µM [2] [%] | remaining activity at 5 µM [3] [%]
Cc1nc(N=Nc2ccc(S(=O)(=O)[O-])cc2S(=O)(=O)[O-])c(COP(=O)([O-])[O-])c(C=O)c1O.[Na+].[Na+].[Na+].[Na+] [PPADS, Pyridoxalphosphate-6-azophenyl-2′,4′-disulfonic acid tetrasodium, reference compound] | 26.7 | 6.2 |  |  | 
CS(=O)(=O)c1ccc(N2CCCC(NC(=O)CCc3ccccc3)C2)cc1 (centres unmarked) [#1] |  |  | 56.5 | 61.3 | 71.9
CC1CCN(c2ccc(S(=O)(=O)N3CCCC(NC(=O)CCc4ccccc4)C3)cc2)CC1 (centres unmarked) [#40] |  |  | 39 | 73.5 | 62.9
O=C(CCc1ccccc1)NC1CCCN(c2ccc(S(=O)(=O)Nc3ccccc3)cc2)C1 (centres unmarked) [#50] |  |  | 47.8 | 67.2 | 84.3
COc1ccc(S(=O)(=O)N2CCCC(NC(=O)CCc3ccccc3)C2)cc1 (centres unmarked) [#2] |  |  | 39.1 | 85.7 | 56.4
O=C(CCc1ccccc1)N1CCN(S(=O)(=O)c2ccc(F)cc2)CC1 [#30] |  |  | 70.1 | 67.5 | 76.8
O=C(NCCc1ccccc1)C1CCN(S(=O)(=O)c2ccc(N3CCCCC3)cc2)CC1 [#20] |  |  | 75.4 | 68.1 | 50.6
CCOc1ccc(S(=O)(=O)N2CCCC(NC(=O)CCc3ccccc3)C2)cc1 (centres unmarked) [#37] |  |  | 55.4 | 90.3 | 54.8
O=C(CCc1ccccc1)NC1CCCN(S(=O)(=O)Cc2ccc(Br)cc2)C1 (centres unmarked) [#8] |  |  | 67 | 94.6 | 50.9
O=C(CCc1ccccc1)N1CCNCC1 [#29, hydrochloride] |  |  | 62.5 | 83.3 | 67.1
O=C(CCc1ccccc1)NC1CCCN(S(=O)(=O)c2ccc(N3CCCCC3)cc2)C1 (centres unmarked) [#5] |  |  | 59.6 | 87.8 | 53.1
NS(=O)(=O)c1ccc(N2CCCC(NC(=O)CCc3ccccc3)C2)cc1 (centres unmarked) [#53] |  |  | 66.2 | 58 | 49.7
CCCCNc1ccc(S(=O)(=O)N2CCC(C(=O)O)CC2)cc1 [#27] |  |  | 50.8 | 67.2 | 59.9
CC(C)S(=O)(=O)c1ccc(N2CCCC(NC(=O)CCc3ccccc3)C2)cc1 (centres unmarked) [#7] |  |  | 65.6 | 78.8 | 76.8
CC1CCCN(c2ccc(S(=O)(=O)N3CCCC(NC(=O)CCc4ccccc4)C3)cc2)C1 (centres unmarked) [#44] |  |  | 40.5 | 83 | 63.5
O=C1CCC(N2Cc3c(NC(=O)CCc4ccccc4)cccc3C2=O)C(=O)N1 (centres unmarked) [#16] |  |  | 51.5 | 77 | 60.7
COCCOc1ccc(S(=O)(=O)N2CCCC(NC(=O)CCc3ccccc3)C2)cc1 (centres unmarked) [#17] |  |  | 60.9 | 64.9 | 77.6
O=C(NCCc1ccccc1)C1CCCN(S(=O)(=O)c2ccc(N3CCOCC3)cc2)C1 (centres unmarked) [#24] |  |  | 66.3 | 73.5 | 68.1
CN1CCN(c2ccc(S(=O)(=O)N3CCCC(NC(=O)CCc4ccccc4)C3)cc2)CC1 (centres unmarked) [#18] |  |  | 62.3 | 73.1 | 61.6
CC(C)COc1ccc(S(=O)(=O)N2CCCC(NC(=O)CCc3ccccc3)C2)cc1 (centres unmarked) [#6] |  |  | 51 | 55.2 | 98.9
O=S(=O)(c1ccccc1)C1CN(S(=O)(=O)c2ccc(N3CCOCC3)cc2)C1 [#11] |  |  | 44.3 | 52 | 59.6
O=C(CCc1ccccc1)NC1CCCN(c2ccc(S(=O)(=O)N3CCCCC3)cc2)C1 (centres unmarked) [#54] |  |  | 48.4 | 59.4 | 63.3
O=C(CCc1ccccc1)NC1CCCN(c2ccc(S(=O)(=O)NCc3ccco3)cc2)C1 (centres unmarked) [#52] |  |  | 63.4 | 72.3 | 52.8
CC(C)N(C(C)C)S(=O)(=O)c1ccc(N2CCCC(NC(=O)CCc3ccccc3)C2)cc1 (centres unmarked) [#49] |  |  | 65.8 | 82.6 | 35.3
O=C(CCc1ccccc1)NC1CCCN(S(=O)(=O)c2ccc(OCc3ccccc3)cc2)C1 (centres unmarked) [#4] |  |  | 43.7 | 83.7 | 56.9
O=C(CCc1ccccc1)N1CCN(S(=O)(=O)c2ccc(N3CCCC3)cc2)CC1 [#35] |  |  | 56.3 | 43.7 | 70.7
CC(C)(C)OC(=O)N1CCN(c2ccc(S(=O)(=O)N3CCCC(C(=O)NCCc4ccccc4)C3)cc2)CC1 (centres unmarked) [#36] |  |  | 49 | 49.4 | 72.2
CN(C)c1ccc(S(=O)(=O)N2CCCC(NC(=O)CCc3ccccc3)C2)cc1 (centres unmarked) [#14] |  |  | 63.9 | 72.7 | 70.9
O=C(CCc1ccccc1)NC1CCCN(S(=O)(=O)c2ccc(N3CCOCC3)cc2)C1 (centres unmarked) [#12] |  |  | 52.8 | 64.8 | 69.1
O=C(CCc1ccccc1)NC1CCCN(S(=O)(=O)c2ccc(-n3cc(Br)cn3)cc2)C1 (centres unmarked) [#9] |  |  | 92.8 | 61.3 | 84.5
